Patent publication US11246818B2, “Peptides and compositions for use in cosmetics” (LIPOTRUE, S.L., priority 2017, dated 2022)
Residues, ends and D or L forms follow the SMILES beside them.

Columns and labels:
[1] = test system: Primary human epidermal keratinocytes; assay: Protection against glycation induced by heavy metals (Advanced Glycation End products, competitive ELISA); type: cell-based; conditions: all concentrations tested (0.01, 0.05, 0.1 mg/ml), 48 hours
Experimental: Primary human epidermal keratinocytes were seeded in 96-well plates in standard culture medium and, 24 hours later, subjected to a simultaneous treatment with heavy metals (containing a mixture of Fe, Pb and Cr) and peptide Ac-SEQ ID NO: 1-NH2 for 48 hours. Levels of Advance Glycation End (AGE) products were measured by means of a competitive ELISA assay with absorbance at 450 nm.

[2] = test system: HEKa cells; assay: Modulation of the expression of antioxidant genes (RTqPCR); type: cell-based, human; conditions: 0.05 mg/mL, 24 hours
Text: Changes in gene expression levels are represented as a positive or negative fold-change with regard to the basal control (untreated cells). Bars from top to bottom in the y-axis refer to: CYP2R1 (Vitamin D 25-hydroxylase), NFE2L2 (Nuclear factor-like 2), HMOX1 (Heme oxygenase-1), GSTP1 (Glutathione S-transferase P), GSS (Glutathione synthetase), GPX1 (Glutathione peroxidase) and TRX (Thioredoxin). The x-axis refers to fold change versus or with regard to the basal control.
Briefly, HEKa cells were seeded in duplicate in 6-well plates at a density of 4×10^5 cells/well and maintained at standard culture conditions (37° C., 95% humidity, 5% CO2) for 24 hours. Then, cells were treated with non-cytotoxic concentrations of Ac-SEQ ID NO: 1-NH2 (0.05 mg/mL) for an additional 24 hours.
Untreated cells were used as basal control. Cells were then lysed for RNA extraction with a RNA purification commercial kit following manufacturer instructions (RNeasy mini kit; Qiagen; Netherlands). RNA was then quantified by nanodrop, adjusted in concentration and processed for retrotranscription to cDNA using a commercially available kit (High-Capacity cDNA Reverse Transcription kit; Thermofisher Scientific, USA). Resulting cDNA was used to perform a RTqPCR (Real Time Quantitative Polymerase Chain Reaction) using Taqman technology and a panel of probes designed to target specific genes related to melanogenesis and HEMn-HEKa and HEMn-HDFa communication.

CC(=O)N[C@@H](CC(=O)O)C(=O)N[C@@H](Cc1ccc(O)cc1)C(=O)N[C@@H](CCCCN)C(=O)N[C@H](C(N)=O)C(C)C [Ac-SEQ ID NO: 1-NH2, Ac-Asp-Tyr-Lys-Val-NH2] (Ac-DYKV-NH2)
quantity of advanced glycation end-products [1]: statistically significant decrease | CYP2R1 gene expression, fold change versus basal control [2]: 1.44 fold change | GPX1 gene expression, fold change versus basal control [2]: 1.22 fold change | GSS gene expression, fold change versus basal control [2]: 1.10 fold change | GSTP1 gene expression, fold change versus basal control [2]: 1.13 fold change | HMOX1 gene expression, fold change versus basal control [2]: 1.48 fold change | NFE2L2 gene expression, fold change versus basal control [2]: 1.23 fold change | TRX gene expression, fold change versus basal control [2]: 1.34 fold change
